According to patent US4307072A, “N-Triiodobenzoylaminoacyl polyhydroxic amines” (Mallinckrodt, Inc., priority 1977, dated 1981):
Values after ≈ are worked out from the molar mass of the structure shown.

Legend:
Swiss albino mice [1] = experiment: Intracerebral toxicity study in mice (48 hours LD50); assay type: in vivo; conditions: 0.05 ml. (0.1 ml. maximum), concentration I W/V: Example 1 26.3, Example 2 11.25, Example 3 28.2, Example 5 28.2
Procedure: (§1) Intravenous, intracerebral and intracisternal acute toxicities of the compounds of Examples 1-5 were determined according to the following procedures.
Intracerebral toxicity study in mice
Swiss albino mice of either sex, weighing 18 to 23 grams were used for this test according to the method of Haley (Brit. J. Pharmcol. 12, 12-15 1957). At each dose level, the contrast medium was injected as follows. The mouse was grasped firmly by the loose skin behind the head. After the skin was pulled taut, a 3/8 inch 27 gauge needle attached to a 0.25 ml. syringe was inserted perpendicularly through the skull into the brain at a point 2 mm. from either side of the mid line on a line drawn through the anterior base on the ears. A dose of 0.05 ml. (0.1 ml. maximum) of various concentrations of the contrast medium was injected.
Mortalities were recorded during the first four hours, then daily for two days. Surviving animals were sacrificed 48 hours after injection and the LD50 value was calculated according to the method of Litchfield and Wilcoxon (J. Pharmacol. Exp. Ther. 96, 99-113, 1949).

Swiss albino mice [2] = experiment: Intravenous toxicity study in mice (seven-day LD50); assay type: in vivo; conditions: lateral tail vein, 1 ml./min., concentration I W/V: Example 1 26.3, Example 2 11.25, Example 3 28.2, Example 5 28.0
Procedure: as §1
Intravenous toxicity study in mice
Swiss albino mice with weights ranging from 18 to 25 grams were used for the performance of the test. Three to four groups of mice with sexes equally represented in each group received single measured doses (mg. of contrast media/kg of body weight) injected into a lateral tail vein at a rate of 1 ml./min.
Mortalities were recorded during the first four hours then daily for seven days. After seven days, surviving animals were sacrificed and necropsies performed.
Calculation of the seven-day LD50 value was carried out according to the method of Litchfield and Wilcoxon (J. Pharmacol. Exp. Ther. 96, 99-113, 1949)

Sprague Dawley rats = experiment: Intracisternal toxicity study in rats (LD50); assay type: in vivo; conditions: cisterna magna, single dose, seven days, concentration I W/V: Example 1 35.0, Example 2 11.25, Example 3 14.1, Example 5 35.0
Procedure: as §1
Intracisternal toxicity study in rats
The method of intracisternal administration of contrast media in rats was based on the procedure outlined by Melartin, et al. (Investigative Radiology, Jan. - Feb. 13, 12, 1970). Sprague Dawley rats were anesthetized with ether and positioned on a slanted stand. Following clipping of their hair on the nuchal and cervical area, a small midline incision was made in the skin in the occipital area to facilitate penetration of a 27 gauge needle into the cisterna magna. […] Single measured doses of the contrast medium were then injected.
Following injection, the animals were individually housed and observed for pharmacological and toxicological manifestations. Mortalities were recorded during the first four hours, then daily for seven days. Calculation of the LD50 value was carried out according to the method of Litchfield and Wilcoxon (J. Pharmacol. Exp. Ther. 96, 99-113, 1949)

physchem = conditions: water

Compound | Intracerebral LD50 (Swiss albino mice [1]) [mg. I/kg.] | Intravenous LD50 (Swiss albino mice [2]) | solubility (Solubility in water) [mg/mL] | solubility (Solubility in water; water) [mg/mL] | Intracisternal LD50 (Sprague Dawley rats) [mg. I/kg.] | solubility (physchem) [mg/mL]
CC(=O)Nc1c(I)c(C(=O)NCC(=O)N[C@@H](CO)[C@@H](O)[C@H](O)[C@H](O)CO)c(I)c(N(C)C(C)=O)c1I [Example 1, 2-(3-Acetamido-2,4,6-triiodo-5-N-methylacetamidobenzoylglycylamino)-2-deoxy-D-glucitol] | ~1550 | ~10,000 mg. I/kg. | 1000 (≈ 1180 mM) | ~1000 (≈ 1180 mM) | ~525 | 
CNC(=O)c1c(I)c(NC(C)=O)c(I)c(C(=O)NCC(=O)N[C@@H](CO)[C@@H](O)[C@H](O)[C@H](O)CO)c1I [Example 2, 2-Deoxy-2-(3-Acetamido-2,4,6-triiodo-5-N-methylcarbamyl-benzoylglycylamino)-D-glucitol] | > 543 | > 7,500 mg. I/kg. |  | ~50 (≈ 59.9 mM) | < 200 | 
CC(=O)Nc1c(I)c(C(=O)NCC(=O)N(C)CC(O)CO)c(I)c(C(=O)NCC(=O)N(C)CC(O)CO)c1I (centres unmarked) [Example 3, (5-Acetamido-2,4,6-triiodoisophthaloyl)-N,N'-bis-2,3-dihydroxypropyl-N,N'-dimethyl-bis glycinamide] | ~1425 | > 15,000 mg. I/kg. |  |  | 100 | ~1000 (≈ 1120 mM)
CC(=O)Nc1c(I)c(C(=O)NCC(=O)N(C)C[C@H](O)[C@@H](O)[C@H](O)[C@H](O)CO)c(I)c(N(C)C(C)=O)c1I [Example 5, N-(3-Acetamido-2,4,6-triiodo-5-N-methylacetamidobenzoylglycyl)-1-(methylamino)-1-deoxy-D-glucitol] | ~1100 | ~8,000 mg. I/kg. |  | ~1000 (≈ 1160 mM) | 400 | 
